From patent publication US11974969B2, “Artificially synthesized sphingosine derivative lipoid monomer and use of same for delivering nucleic acid” (INSTITUTE OF BASIC MEDICAL SCIENCES CHINESE ACADEMY OF …, priority 2018, dated 2024)

Tested on: HEK293T cells
Test: Flow cytometry (CFlow): delivery of FAM-labeled single-stranded PGY-sRNA-6 into HEK293T cells by different concentrations of single sphingosine derivative (Example 1)
Type: cell-based, human
Settings: for delivery of single-stranded PGY-sRNA-6 into 293T cells (fluorescence shift compared to free uptake group): different concentrations: 3.75, 12.5, 37.5 μg single lipid, 0.1 nmol FAM-labeled sRNA, final 100 nM, 9 hours, flow cytometry; for Lipid delivery group (different concentrations of lipids) 3.75 μg/mL: single sphingosine derivative 3.75 μg/mL; for Lipid delivery group (different concentrations of lipids) 3.75 μg/mL / Lipid delivery group (different concentrations of lipids) 12.5 μg/mL / Lipid delivery group (different concentrations of lipids) 37.5 μg/mL: FAM-labeled PGY-ssRNA-6 100 nM, 293T cells, fluorescence shift by flow cytometry; for Lipid delivery group (different concentrations of lipids) 12.5 μg/mL: single sphingosine derivative 12.5 μg/mL; for Lipid delivery group (different concentrations of lipids) 37.5 μg/mL: single sphingosine derivative 37.5 μg/mL
Method: 2.1 5 μl of small RNA (Ribobio, 20 μM, as shown in Table 2) and 95 μL of DEPC (Sigma) treated water were added into a 1.5 ml EP tube and mixed well. Then a certain amount of single lipid or lipid composition in chloroform solution (as shown in Table 1) was added and fully mixed by sucking and blowing;
2.2 The system was fully mixed and was heated in a water bath at 90° C. for 15 minutes;
2.3 The system was taken out and cooled down to room temperature.
4.3 The human embryonic kidney cell line HEK293T and human monocyte THP-1 cells used in the experiment were cultured to logarithmic growth phase, and then plated into 12-well plates with a cell density of 6×10^5/1 mL medium/well. The 12-well plate (1 mL medium/well) was incubated overnight (12 h) at 37° C., followed by subsequent experiments.
4.4 The experiment groups were as follows: • 1) Naïve group: untreated cells. This group served as a blank control group. • 2) Free uptake group: […] of 5′-FAM labeled small RNA solution (storage concentration is 20 μM) was directly added. This group served as a negative control group; • 3) Lipid nucleic acid mixture treatment group: The mixture of the lipid prepared in step 2 and the 5′-FAM-labeled small RNA was added into the cells and mixed well. The final concentration of small RNA is 100 nM.
4.5 After co-incubation with cells for 6 h/9 h, the cells were washed three times with PBS. The cells were re-suspended with PBS (self-prepared). The flow cytometer Accuri® C6 instrument (purchased from BD, US) was used to detect the fluorescence intensity of the cells in the sample wells. Implementation method: the software CFlow Plus used in the flow cytometer Accuri® C6 instrument detection was opened, the instrument was washed with cleaning solution for 3 minutes, and then washed with double-distilled water for 5 minutes. The injection of blank group samples was started while setting the number of cells unlimited. The injection of Naïve group samples was stopped when the number of cells detected was 10000 events. The live cell group in the fluorescence spectrum (abscissa: FSC-A, ordinate: SSC-A) was circled as gate P1. With the number of cells set as limited, the detection was stopped when the number of cells in gate P1 reached 10000 events. The fluorescence shift value was obtained in the fluorescence spectrum (abscissa: fluorescence channel FLA-1, ordinate: SSC-A).
1) Conditions of the boiling method: to 100 μL FAM-labeled single-stranded PGY-sRNA-6 solution was added corresponding amount of lipid solution, and heated at 90° C. for 15 min;
2) Experimental conditions: the final concentration of small RNA was 100 nM. 9 hours after being added to the cells, the amount of single-stranded PGY-sRNA-6 that entered into the cells was compared by detecting the fluorescence shift using flow cytometry technology. For the detailed protocols, see “Flow cytometry technology (CFlow) determined the uptake amount of nucleic acid that is delivered into cells by lipid”. All experiments were performed in triplicates.

CCCCCCCCCCCCC/C=C/[C@@H](O)[C@H](CO[C@@H]1O[C@H](CO)[C@H](O)[C@H](O)[C@H]1O)NC(=O)CCCCCCCCCCCCCC [So-61, N-[(1S,2R,3E)-1-[(β-D-galactopyranosyloxy)methy1]-2-hydroxy-3-heptadecen-1-yl]-pentadecanamide]
delivery of single-stranded PGY-sRNA-6 into 293T cells (fluorescence shift compared to free uptake group): deliver | Lipid delivery group (different concentrations of lipids) 3.75 μg/mL: 7.40% | Lipid delivery group (different concentrations of lipids) 12.5 μg/mL: 8.10% | Lipid delivery group (different concentrations of lipids) 37.5 μg/mL: 7.00%

CCCCCCCCCCCCC/C=C/[C@@H](O)[C@H](CO)NC(=O)CCCCCCCCCCC [So-62, N-[(1S,2R,3E)-2-hydroxy-1-(hydroxymethyl)-3-heptadecen-1-yl]-dodecanamide]
delivery of single-stranded PGY-sRNA-6 into 293T cells (fluorescence shift compared to free uptake group): deliver | Lipid delivery group (different concentrations of lipids) 3.75 μg/mL: 6.60% | Lipid delivery group (different concentrations of lipids) 12.5 μg/mL: 6.50% | Lipid delivery group (different concentrations of lipids) 37.5 μg/mL: 7.10%

CCCCCCCCCCCCCC[C@@H](O)[C@@H](O)[C@@H](N)CO [So-63, 2S-amino-1,3S,4R-octadecanetriol]
delivery of single-stranded PGY-sRNA-6 into 293T cells (fluorescence shift compared to free uptake group): deliver | Lipid delivery group (different concentrations of lipids) 3.75 μg/mL: 5.60% | Lipid delivery group (different concentrations of lipids) 12.5 μg/mL: 7.70% | Lipid delivery group (different concentrations of lipids) 37.5 μg/mL: 6.50%

CCCCCCCCCCCCC/C=C/[C@@H](O)[C@H](CO)NC(=O)CCCCCCCCCCCCCC [So-64, N-[(1S,2R,3E)-2-hydroxy-1-(hydroxymethyl)-3-heptadecen-1-yl]-pentadecanamide]
delivery of single-stranded PGY-sRNA-6 into 293T cells (fluorescence shift compared to free uptake group): deliver | Lipid delivery group (different concentrations of lipids) 3.75 μg/mL: 7.40% | Lipid delivery group (different concentrations of lipids) 12.5 μg/mL: 6.20% | Lipid delivery group (different concentrations of lipids) 37.5 μg/mL: 8.70%

CCCCCCCCCCCCC/C=C/[C@@H](O)[C@H](CO)NC(=O)CCCCCCCCCCCCCCCCCC [So-65, N-[(1S,2R,3E)-2-hydroxy-1-(hydroxymethyl)-3-heptadecen-1-yl]-nonadecanamide]
delivery of single-stranded PGY-sRNA-6 into 293T cells (fluorescence shift compared to free uptake group): deliver | Lipid delivery group (different concentrations of lipids) 3.75 μg/mL: 7.60% | Lipid delivery group (different concentrations of lipids) 12.5 μg/mL: 7.50% | Lipid delivery group (different concentrations of lipids) 37.5 μg/mL: 6.80%

CCCCCCCCCCCCC/C=C/[C@@H](O)[C@@H](N)CO[C@@H]1OC(CO)[C@@H](O)C(O)C1O (stereo partly drawn) [So-66, D-glucosyl-β1-1′-D-erythro-sphingosine]
delivery of single-stranded PGY-sRNA-6 into 293T cells (fluorescence shift compared to free uptake group): deliver | Lipid delivery group (different concentrations of lipids) 3.75 μg/mL: 7.10% | Lipid delivery group (different concentrations of lipids) 12.5 μg/mL: 18.10% | Lipid delivery group (different concentrations of lipids) 37.5 μg/mL: 29.50%

CCCCCCCCCCCCCC[C@@H](O)[C@@H](O)[C@H](CO)NC(=O)CCCCC [So-67, N-[(1S,2S,3R)-2,3-dihydroxy-1-(hydroxymethyl)heptadecyl]-hexanamide]
delivery of single-stranded PGY-sRNA-6 into 293T cells (fluorescence shift compared to free uptake group): deliver | Lipid delivery group (different concentrations of lipids) 3.75 μg/mL: 6.30% | Lipid delivery group (different concentrations of lipids) 12.5 μg/mL: 5.30% | Lipid delivery group (different concentrations of lipids) 37.5 μg/mL: 2.80%

CCCCCCCCCCCCCCCC(=O)N[C@@H](CO)[C@H](O)[C@H](O)CCCCCCCCCCCCCC [So-68, N-[(1S,2S,3R)-2,3-dihydroxy-1-(hydroxymethyl)heptadecyl]-hexadecanamide]
delivery of single-stranded PGY-sRNA-6 into 293T cells (fluorescence shift compared to free uptake group): deliver | Lipid delivery group (different concentrations of lipids) 3.75 μg/mL: 4.80% | Lipid delivery group (different concentrations of lipids) 12.5 μg/mL: 3.80% | Lipid delivery group (different concentrations of lipids) 37.5 μg/mL: 3.90%

CCCCCCCCCCCCCCCCCC(=O)N[C@@H](CO)[C@H](O)[C@H](O)CCCCCCCCCCCCCC [So-69, N-[(1S,2S,3R)-2,3-dihydroxy-1-(hydroxymethyl)heptadecyl]-octadecanamide]
delivery of single-stranded PGY-sRNA-6 into 293T cells (fluorescence shift compared to free uptake group): deliver | Lipid delivery group (different concentrations of lipids) 3.75 μg/mL: 4.60% | Lipid delivery group (different concentrations of lipids) 12.5 μg/mL: 3.80% | Lipid delivery group (different concentrations of lipids) 37.5 μg/mL: 3.30%

CCCCCCCCCCCCC/C=C/[C@H](O)[C@H](N)CO [So-70, (2R,3S,4E)-2-amino-4-octadecene-1,3-diol]
delivery of single-stranded PGY-sRNA-6 into 293T cells (fluorescence shift compared to free uptake group): deliver | Lipid delivery group (different concentrations of lipids) 3.75 μg/mL: 4.70% | Lipid delivery group (different concentrations of lipids) 12.5 μg/mL: 10.10% | Lipid delivery group (different concentrations of lipids) 37.5 μg/mL: 11.40%

CCCCCCCCCC(=O)C(N)CO.Cl (centres unmarked) [So-72, 2-amino-1-hydroxy-3-dodecanone, monohydrochloride]
delivery of single-stranded PGY-sRNA-6 into 293T cells (fluorescence shift compared to free uptake group): deliver | Lipid delivery group (different concentrations of lipids) 3.75 μg/mL: 2.40% | Lipid delivery group (different concentrations of lipids) 12.5 μg/mL: 3.40% | Lipid delivery group (different concentrations of lipids) 37.5 μg/mL: 14.10%

CCCCCCCCCC/C=C/[C@@H](O)[C@@H](N)CO [So-73, 2S-amino-4E-pentadecene-1,3R-diol]
delivery of single-stranded PGY-sRNA-6 into 293T cells (fluorescence shift compared to free uptake group): deliver | Lipid delivery group (different concentrations of lipids) 3.75 μg/mL: 3.20% | Lipid delivery group (different concentrations of lipids) 12.5 μg/mL: 4.60% | Lipid delivery group (different concentrations of lipids) 37.5 μg/mL: 9.50%

[2H]C([2H])([2H])C([2H])([2H])C([2H])([2H])C([2H])([2H])CCCCCCCCC/C=C/[C@@H](O)[C@@H](N)CO [So-74, (2S,3R,E)-aminooctadec-4-ene-15,15,16,16,17,17,18,18,18-d9-1,3-diol]
delivery of single-stranded PGY-sRNA-6 into 293T cells (fluorescence shift compared to free uptake group): deliver | Lipid delivery group (different concentrations of lipids) 3.75 μg/mL: 4.00% | Lipid delivery group (different concentrations of lipids) 12.5 μg/mL: 3.10% | Lipid delivery group (different concentrations of lipids) 37.5 μg/mL: 6.60%

CC(C)CCCCCCCCCCC[C@@H](O)[C@@H](N)CO [So-75, 1,3-Hexadecanediol, 2-amino-15-methyl-, D-erythro-]
delivery of single-stranded PGY-sRNA-6 into 293T cells (fluorescence shift compared to free uptake group): deliver | Lipid delivery group (different concentrations of lipids) 3.75 μg/mL: 3.00% | Lipid delivery group (different concentrations of lipids) 12.5 μg/mL: 4.20% | Lipid delivery group (different concentrations of lipids) 37.5 μg/mL: 11.40%
